Measured values: article PMC6792352, “Limited Chemical Structural Diversity Found to Modulate Thyroid Hormone Receptor in the Tox21 Chemical Library” (Environmental Health Perspectives, 2019)
Where two headings read alike, the source gives them in different places.

What was measured:
[1] = test system: thyroid hormone receptor (TR); assay: Classification of TR actives across characterization assays (TR-Ag / RXR-Ag; TR model binary); set-up: key to Categorization Code: FP, false positive; details: for Categorization Code: TR agonist characterization; for Classification: TR-Ag = TR agonist, RXR-Ag = RXR agonist
Source text: Active rate comparison between receptors. […]; [Kleinstreuer et al. 2017]). We first removed chemicals classified as pharmaceuticals because these sets of chemicals are biased toward drugs targeting estrogen receptors and androgen receptors. […]. For TR, we cross-referenced these same chemicals for testing against TR and used candidate chemicals in Tables 2 and 3 to define active rates.
Complete results from both GH3-TRE qHTS agonist, antagonist, and viability mode for the 8,305 compounds are provided in Excel Table S2. […]. […]. Together with some potential false negatives, these chemicals, totaling 84 in all, were screened for activity in a series of assays for confirmation in the GH3-TRE-Ag assay; specificity screening in the TRβ-UAS-bla HEK 293T and RXRα-UAS-bla HEK 293T mammalian one-hybrid assays; viability assays for the HEK293T parental cell line; and orthogonal screening in two TR:coactivator recruitment assays, TRa-coa and TRb-coa. […].

GH3-TRE-Luc cell line [2] = test system: GH3-TRE-Luc cell line
[3] = test system: thyroid hormone receptor (endogenous TRα and TRβ); assay: GH3-TRE-Ag-Followup confirmation (TOX21_TR_LUC_GH3_Agonist_Followup, aeid 2226); type: cell-based, rat; details: for GH3-TRE-Ag-Followup hitc: hit call from tcpl; for AC50: read-out: GH3-TRE-Ag-Followup AC50
[4] = test system: thyroid hormone receptor (endogenous TRα and TRβ); assay: GH3-TRE-Ag primary qHTS, luciferase reporter, agonist mode (TOX21_TR_LUC_GH3_Agonist, aeid 803); type: cell-based, rat; details: for GH3-TRE-Ag AC50 hitc: hit call from tcpl
[5] = test system: Tox21 cell viability assays (different cell types); assay: Global cytotoxicity: eighteen Tox21 cell viability assays; type: cell-based
in vitro = details: rat, gh3-tre-luc cells
[6] = molecular target: T1, human TRβ ligand-binding domain (Homo sapiens, UniProt P10828); assay: TRb-coa LanthaScreen TR-FRET coactivator (SRC-2 peptide) recruitment, agonist (TOX21_TRB_COA_Agonist_Followup_ratio, aeid 2244); type: biochemical; set-up: host or cells: GeneBLAzer UAS-bla HEK 293T; details: for AC50 / TRb-coa hitc: agonist; for AC50: read-out: TRb-coa AC50; for TRb-coa hitc: hit call from tcpl
T1 sequence (P10828 217-461 limits assumed): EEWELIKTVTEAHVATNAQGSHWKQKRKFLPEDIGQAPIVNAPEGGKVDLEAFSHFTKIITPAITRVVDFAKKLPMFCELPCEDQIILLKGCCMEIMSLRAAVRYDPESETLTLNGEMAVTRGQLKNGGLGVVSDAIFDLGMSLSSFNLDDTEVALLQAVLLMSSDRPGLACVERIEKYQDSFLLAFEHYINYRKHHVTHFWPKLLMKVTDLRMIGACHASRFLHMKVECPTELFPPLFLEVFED

[7] = molecular target: T1, human TRβ ligand-binding domain; assay: TRb-bla agonist mammalian one-hybrid beta-lactamase assay (TOX21_TRB_BLA_Agonist_Followup_ratio, aeid 2236); type: cell-based; set-up: host or cells: GeneBLAzer UAS-bla HEK 293T; details: for AC50 / TRb-bla hitc: agonist; for AC50: read-out: TRb-bla AC50; for TRb-bla hitc: hit call from tcpl
[8] = molecular target: T2, TRα ligand-binding domain (Homo sapiens, UniProt P10827); assay: TRa-coa LanthaScreen TR-FRET coactivator (SRC-2 peptide) recruitment, agonist (TOX21_TRA_COA_Agonist_Followup_ratio, aeid 2230); type: biochemical; details: for TRa-coa hitc: hit call from tcpl
T2 construct: the receptor LBDs expressed as glutathione S-transferase (GST) fusion proteins; purchased
T2 sequence (P10827 163-410 isoform P10827-2 limits assumed, other chains not shown): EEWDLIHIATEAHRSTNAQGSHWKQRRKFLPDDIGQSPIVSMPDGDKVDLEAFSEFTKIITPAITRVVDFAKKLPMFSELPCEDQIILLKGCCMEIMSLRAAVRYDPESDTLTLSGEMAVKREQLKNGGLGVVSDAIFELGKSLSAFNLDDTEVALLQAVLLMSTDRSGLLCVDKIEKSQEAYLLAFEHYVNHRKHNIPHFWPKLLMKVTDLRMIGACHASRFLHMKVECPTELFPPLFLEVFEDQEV

human RXRα = molecular target: T3, human RXRα (Homo sapiens, UniProt P19793); assay: RXRa-bla-Ag mammalian one-hybrid beta-lactamase assay (TOX21_TR_RXR_BLA_Agonist_Followup_ratio, aeid 2253); type: cell-based; details: for tr-followup-rxr-bla-agonist-1 hitc: hit call from tcpl; for Emax: read-out: EMax (% of Control) tr-followup-rxr-bla-agonist-1
T3 construct: host or cells: GeneBLAzer UAS-bla HEK 293T
T3 sequence (P19793 227-458 limits assumed): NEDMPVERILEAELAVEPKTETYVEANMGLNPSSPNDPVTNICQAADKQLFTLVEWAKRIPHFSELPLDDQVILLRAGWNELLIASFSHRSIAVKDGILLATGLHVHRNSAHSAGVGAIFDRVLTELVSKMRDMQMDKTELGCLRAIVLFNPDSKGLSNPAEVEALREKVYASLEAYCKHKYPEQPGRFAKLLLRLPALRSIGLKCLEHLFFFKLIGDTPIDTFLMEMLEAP

GH3-TRE-Luc cell line [9] = assay: GH3-TRE-Via cell viability, CellTiter-Fluor (TOX21_TR_LUC_GH3_Antagonist_viability, aeid 805); details: for TR_LUC_GH3_Antagonist_viability hitc: hit call from tcpl
[10] = agonist, read-out: TRa-coa AC50
[11] = read-out: tr-followup-rxr-bla-agonist-1 AC50
[12] = Rattus norvegicus, read-out: TR_LUC_GH3_Antagonist_viability AC50 (uM)
[13] = # active of 18 total Tox21 viability assays
[14] = read-out: TR_LUC_GH3_Antagonist_viability AC50

| SMILES | Categorization Code [1] | EMax (% of Control) gh3-tre-agonist-followup-1_agonist [3] | GH3-TRE-Ag-Followup hitc [3] | GH3-TRE-Ag AC50 hitc [4] | GLOBAL CYTOTOXICITY cytotox.median [5] | GLOBAL CYTOTOXICITY cytotox.number_Active [5] | AC50 [6] | TRb-coa hitc [6] | AC50 [3] | AC50 [7] | TRb-bla hitc [7] | AC50 [8, 10] | TRa-coa hitc ([8]; agonist) | EMax (% of Control) gh3-tre-agonist [4] | tr-followup-rxr-bla-agonist-1 hitc (human RXRα) | AC50 (human RXRα; [11]) | TR_LUC_GH3_Antagonist_viability hitc (GH3-TRE-Luc cell line [9]) | EMax (% of Control) tra-coa-agonist-followup-1 [8] | EMax (% of Control) tr-followup-rxr-bla-agonist-1 (human RXRα) | also measured |
| --- | --- | --- | --- | --- | --- | --- | --- | --- | --- | --- | --- | --- | --- | --- | --- | --- | --- | --- | --- | --- |
| N[C@@H](Cc1cc(I)c(Oc2ccc(O)c(I)c2)c(I)c1)C(=O)[O-].[Na+] [3,3ʹ,5-Triiodo-L-thyronine sodium salt, reference compound] | TR-Ag | 96.5 % of Control | 1 | 1 | >92 | 0 |  |  |  |  |  |  |  |  |  |  |  |  |  | Classification [1]: TR-Ag; AC50 (GH3-TRE-Luc cell line [2]): > 92 µM; TR_LUC_GH3_Antagonist_viability hitc (GH3-TRE-Luc cell line [2]): 0; TR_LUC_GH3_Agonist_EMAX (% Control) ([4]; Table S5): 108.5 % Control; AC50 [5]: > 92 µM |
| C=C(NC(=O)C(=C)NC(=O)c1csc(C2=N[C@@H]3c4csc(n4)[C@H]4NC(=O)c5csc(n5)[C@H]([C@](C)(O)[C@@H](C)O)NC(=O)[C@H]5CSC(=N5)/C(=C/C)NC(=O)[C@H]([C@@H](C)O)NC(=O)c5csc(n5)[C@]3(CC2)NC(=O)[C@H](C)NC(=O)C(=C)NC(=O)[C@H](C)NC(=O)[C@H]([C@@H](C)CC)N[C@@H]2C=Cc3c([C@H](C)O)cc(nc3[C@H]2O)C(=O)O[C@@H]4C)n1)C(N)=O [Thiostrepton] | About 20% efficacy in RXR and TR; hitc is inconsistent; promiscious NR activity | 28.2 % of Control | 1 | 0 | >92 |  | > 92 µM | 0 | 5.47 µM | > 92 µM | 0 | > 92 µM | 0 | 15.2 % of Control | 0 | > 92 µM | 0 |  |  | CC50 at 24 h (in vitro; AC50 (uM) modified / 1000): 6.56 µM; Emax ([6]; read-out: EMax (% of Control) trb-coa-agonist-followup-1): -0.224%; Emax ([7]; read-out: EMax (% of Control) trb-bla-agonist-followup-1): 4.1%; Emax ([8]; read-out: EMax (% of Control) tra-coa-agonist-followup-1): -0.6%; Emax (human RXRα): 17.2%; AC50 (GH3-TRE-Luc cell line [9]; [12]): > 92 µM; GLOBAL CYTOTOXICITY cytotox.number_Active [5, 13]: 0 |
| CC(C)(c1ccccc1)c1ccc(O)c(C(C)(C)c2ccccc2)c1 [2,4-Bis(1-methyl-1-phenylethyl)phenol] | FP | 33.5 % of Control | 1 | 0 |  |  | > 92 µM | 0 | 5.35 µM | > 92 µM | 0 | > 92 µM | 0 | 22.3 % of Control | 0 | > 92 µM | 1 | 9.2 % of Control | 12.1 % of Control | CC50 at 24 h (in vitro; AC50 (uM) modified / 1000, Tox21_110001=Tox21_202456, viability, 1 nM T3 present, 24 h): 13.3 µM; CC50 at 24 h (in vitro; AC50 (uM) modified / 1000, Tox21_110001=Tox21_300317, viability, 1 nM T3 present, 24 h): 11.2 µM; EMax (% of Control) trb-coa-agonist-followup-1 [6]: 13.4 % of Control; AC50 (GH3-TRE-Luc cell line [9]; [14]): 11.2 µM; GLOBAL CYTOTOXICITY cytotox.number_Active [5, 13]: 17; GLOBAL CYTOTOXICITY cytotox.median ([5]; median over Tox21 viability assays): 24.3 |
| Cc1cc(NC(=O)C(=O)O)cc(C)c1Oc1ccc(O)c2c1CCC2 [CP-634384, reference compound] | TR-Ag | 103.7 % of Control | 1 | 1 | >92 | 0 |  |  |  |  |  |  | 1 | 129.5 % of Control | 1 |  |  | 158.4 % of Control | 54.9 % of Control | Classification [1]: TR-Ag; AC50 (GH3-TRE-Luc cell line [2]): > 92 µM; TR_LUC_GH3_Antagonist_viability hitc (GH3-TRE-Luc cell line [2]): 0; AC50 ([3]; confirmation, agonist mode): 0.018 µM; AC50 ([8]; cell-free coactivator recruitment, read-out: TRa-coa-Ag AC50): 0.0029 µM; AC50 (human RXRα; HEK 293T one-hybrid, agonist mode, inactive set to 1,000, read-out: RXRa-bla-Ag AC50): 44.3 µM; AC50 [5]: > 92 µM |
| CCCCc1oc2ccccc2c1C(=O)c1cc(I)c(OCCN(CC)CC)c(I)c1 [amiodarone] |  |  |  |  |  |  |  |  |  |  |  |  |  |  |  |  |  |  |  | cytotoxicity in GH3 viability assay (GH3-TRE-Luc cell line [2]): cytotoxic at the concentrations at which it inhibits TR |
| Cc1ccc(O)cc1 [Cresol] | FP | 41.4 % of Control | 1 | 1 | >92 | 0 | > 92 µM | 0 | 23.7 µM | > 92 µM | 0 | > 92 µM | 0 | 51.4 % of Control | 0 | > 92 µM | 0 | 20.0 % of Control | 12.6 % of Control | EMax (% of Control) trb-coa-agonist-followup-1 [6]: 14.8 % of Control; EMax (% of Control) trb-bla-agonist-followup-1 [7]: 3.0 % of Control; AC50 (GH3-TRE-Luc cell line [9]; [14]): > 92 µM |
| Nc1ccc(S(=O)(=O)Nc2nccs2)cc1 [Sulfathiazole] | FP | 19.5 % of Control | 0 | 0 | >92 | 0 |  |  |  |  |  |  |  | 1.9 % of Control | 0 | > 92 µM |  |  |  | CC50 at 24 h (in vitro; AC50 (uM) modified / 1000): > 50 µM; TR_LUC_GH3_Antagonist_viability hitc (GH3-TRE-Luc cell line [2]; rat, 24 h): 0; AC50 ([4]; read-out: GH3-TRE-Ag AC50): > 92 µM; Emax (human RXRα): 30%; AC50 (GH3-TRE-Luc cell line [9]; [12]): > 92 µM |
